Reference: patent US20040122089A1, “Novel eicosanoid analgesics” (priority 2001, published 2004)
Read-outs that look alike come from different tables or passages of the source.

Legend:
[1] = system: anandamide membrane transporter (AMT); format: cell-based, rat; details: [14C]AEA uptake, RBL-2H3 cells
Protocol: (§1) The effect of compounds on the enzymatic hydrolysis of [^14C] AEA (6 μM) was studied by using membranes prepared from N18TG2 cells incubated with increasing concentrations of compounds in 50 mM Tris-HCL, pH 9, for 30 min at 37° C. [^14C] Ethanolamine produced from [^14C] AEA hydrolysis was quantified by scintillation spectroscopy and used to measure fatty acid amide hydrolase (FAAH) activity. The effect of compounds on the uptake of AEA by RBL-2H3 cells was studied with a procedure analogous to that described in Melck, ibid., and modified as described in Hilliard et al., J. Neurochem. 69:631-638 (1997). Cells were incubated with [^14C] AEA (4μM) for 5 min. at 37° C., in the presence or absence of varying concentrations of the inhibitors. Residual [1^4C] AEA in the incubation media after extraction with CHCl3/CH30H (2:1 by volume) was used as a measure of the AEA that was taken up by cells.
In consideration of the potent inhibition of the AMT previously observed with arvanil and its derivatives (see Melck, ibid), the seven compounds were also tested for their inhibitory effect on [^4C] […] Thus, the results in Table 1 confirm the existence of a partial overlap between the ligand recognition properties of VR1 receptors and the AMT (14.24).

AMT = format: cell-based, rat; details: RBL-2H3 cells; read-out: AMT IC50
Protocol: AEA. Cells were incubated with [^14C] AEA for 5 min at 37° C., in the presence or absence of varying concentrations of the inhibitors. Residual [^14C] AEA in the incubation media after extraction with CHCl3/CH3OH 2:1 (by vol.), determined by scintillation counting of the lyophilized organic phase, was used as a measure of the AEA that was taken up by cells.
CP55940 from whole rat brain membranes.

CB2 receptors = biological target: T1, CB2 receptors (Rattus norvegicus, UniProt Q9QZN9); experiment: CB2 binding, displacement of [3H]WIN55,212-2 from rat spleen membranes
T1 construct: rat spleen membranes, which contain mostly CB2 receptors; from tissue; host or cells: rat spleen membranes
T1 sequence (Q9QZN9 1-360): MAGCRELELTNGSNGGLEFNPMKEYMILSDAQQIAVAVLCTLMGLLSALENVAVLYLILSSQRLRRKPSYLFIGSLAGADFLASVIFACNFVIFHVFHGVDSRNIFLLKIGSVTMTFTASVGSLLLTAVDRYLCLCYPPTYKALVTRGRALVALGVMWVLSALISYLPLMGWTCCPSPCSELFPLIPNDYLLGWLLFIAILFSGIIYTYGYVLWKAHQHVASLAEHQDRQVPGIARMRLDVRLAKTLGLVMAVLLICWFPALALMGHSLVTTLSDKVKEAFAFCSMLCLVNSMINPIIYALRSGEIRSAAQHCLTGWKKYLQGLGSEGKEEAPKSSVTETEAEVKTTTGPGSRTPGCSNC
Protocol: (§2) For CB1 receptor binding, [^3H]CP-55,940 (Kd=[…]) was incubated with P2 membranes from whole rat brains as described in Compton et al., J. Pharm. Exp. Ther. 265:218-226 (1993). Displacement curves were generated by incubating drugs with 1 nM of [^3H]CP-55,940. The assays were performed in triplicate, and the results represent the combined data from three individual experiments. A separate set of experiments were conducted in which phenylmthylsulfonylfluoride (PMSF) was added at a concentration of 100 μm in order to prevent possible metabolism of the analogs. CB2 binding assays were performed as described in Melek et al., ibid. In all cases, Ki values were calculated applying the Cheng-Prusoff equation to the IC50 values (obtained by GraphPad) for the displacement of the bound radioligand by increasing concentrations of the test compounds.
(§3) In Table 1, affinity for CB1 and CB2 receptors was measured in displacement assays carried out using rat brain or spleen membranes and [^3H]CP 55,940 or […], respectively. Potency at human VR1 was established by measuring the stimulatory activity of the compounds on the Ca^2+ intracellular concentration in HEK cells transfected with cDNA encoding the human VR1 receptor. Efficacy at VR1 was measured by expressing the effect of a maximal concentration of each compound (usually 10 μM) as percent of the maximal possible effect obtained with 4 μM ionomycin. Data are means ±SEM of at least n=3 separate determinations. *Ki was determined in the presence of PMSF.
The hydroxy analog is much less CB1 vs. CB2 selective in both series.

[2] = biological target: T2, fatty acid amide hydrolase (FAAH) (Mus musculus, UniProt O08914); experiment: [14C]AEA hydrolysis by N18TG2 cell membranes; format: biochemical
T2 construct: membranes prepared from N18TG2 cells; endogenous in cells; host or cells: N18TG2 cell membranes
T2 sequence (O08914 1-579): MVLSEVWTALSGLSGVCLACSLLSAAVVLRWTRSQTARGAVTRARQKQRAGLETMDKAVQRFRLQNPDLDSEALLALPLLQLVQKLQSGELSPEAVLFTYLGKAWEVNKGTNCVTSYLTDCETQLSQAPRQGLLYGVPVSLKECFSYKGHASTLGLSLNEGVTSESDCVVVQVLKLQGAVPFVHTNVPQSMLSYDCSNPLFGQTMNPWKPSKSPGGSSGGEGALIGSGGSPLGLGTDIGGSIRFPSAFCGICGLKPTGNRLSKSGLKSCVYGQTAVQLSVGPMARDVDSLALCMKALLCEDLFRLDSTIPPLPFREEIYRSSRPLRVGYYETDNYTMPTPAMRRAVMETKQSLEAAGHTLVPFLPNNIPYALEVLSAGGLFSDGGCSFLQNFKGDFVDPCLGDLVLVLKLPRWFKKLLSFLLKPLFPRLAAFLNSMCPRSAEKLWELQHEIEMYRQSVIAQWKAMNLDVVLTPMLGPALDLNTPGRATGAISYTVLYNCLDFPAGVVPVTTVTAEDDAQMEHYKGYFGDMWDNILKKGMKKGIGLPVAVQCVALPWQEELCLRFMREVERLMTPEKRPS
Protocol: as §1
Accordingly, when the compounds were tested for their capability of inhibiting [^14C] […] This is in agreement with previous observations that Me-AEA, DMH-derivatives of AEA and arvanil are poor substrates for FAAH. The two exceptions were O-1856 and O-1895, which did inhibit the hydrolysis of [^14C] AEA, although not very potently.

CB1 receptors = CB1 receptors (Rattus norvegicus, UniProt P20272); experiment: CB1 receptor binding, displacement of [3H]CP-55,940 from rat brain P2 membranes (Example 2); parameters: from tissue; host or cells: whole rat brain membranes; details: for Ki: rat brain membranes
Protocol: as §2, §3

mice = experiment: Mouse 'tetrad' of tests after i.v. administration (Example 2); details: for ED50: Mus musculus, iv
human VR1 receptor = human VR1 receptor (Homo sapiens, UniProt Q8NER1); experiment: Ca2+ influx (Fluo-3) in HEK-hVR1 cells (Example 2); format: cell-based; parameters: expressed in transfected cells; host or cells: HEK 293 cells (HEK-hVR1); details: for VR1 efficacy: maximal concentration (usually 10 μM), percent of effect of 4 μM ionomycin
Protocol: N18TG2 and RBL-2H3 cells were grown as described in Melck et al, Bioch. Biophys. Res. Commun. 262:275-284 (1999). Ionomycin was purchased from Sigma. DMH-arvanil, and six substituted dimethylpentyl (DMP) derivatives of arvanil and met-AEA were synthesized as described in Example 1.
HEK-hVR1 cells were prepared and loaded as described in De Petrocellis, et al., FEBS Lett. 483:52-56 (2000). Experiments were carried out by measuring fluorescence at 25° C. […] Capsazepine (1-5 μM) was added 30 minu. Before the test compounds.
as §3

[3] = CB1 (Ki, nM), determined in the presence of PMSF, [3H]CP 55,940, PMSF 100 μM
[4] = CB1 (Ki, nM), [3H]CP 55,940, without PMSF
[5] = read-out: Average ED50 for the four effects
[6] = read-out: R.I. (relative immobility) ED50
[7] = read-out: R.T. (rectal temperature) ED50
[8] = read-out: S.A. (spontaneous activity) ED50
[9] = read-out: T.F. (tail-flick) ED50
[10] = VR1 (EC50, nM), Ca2+ in HEK cells with human VR1
[11] = VR1 EC50, HEK cells with human VR1

CB1 receptors, sequence (P20272 whole entry): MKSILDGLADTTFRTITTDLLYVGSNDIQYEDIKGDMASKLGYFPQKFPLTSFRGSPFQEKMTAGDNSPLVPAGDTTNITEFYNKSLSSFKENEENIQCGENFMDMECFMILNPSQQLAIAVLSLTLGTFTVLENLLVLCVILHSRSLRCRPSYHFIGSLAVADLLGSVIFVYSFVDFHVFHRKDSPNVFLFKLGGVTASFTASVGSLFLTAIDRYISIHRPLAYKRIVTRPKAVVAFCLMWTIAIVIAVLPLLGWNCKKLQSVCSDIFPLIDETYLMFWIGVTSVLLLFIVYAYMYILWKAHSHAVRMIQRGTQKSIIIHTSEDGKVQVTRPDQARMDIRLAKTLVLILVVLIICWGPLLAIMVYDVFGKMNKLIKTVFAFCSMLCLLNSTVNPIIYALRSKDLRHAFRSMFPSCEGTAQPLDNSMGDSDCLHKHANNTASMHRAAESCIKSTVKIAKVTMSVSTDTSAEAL
human VR1 receptor, sequence (Q8NER1 whole entry): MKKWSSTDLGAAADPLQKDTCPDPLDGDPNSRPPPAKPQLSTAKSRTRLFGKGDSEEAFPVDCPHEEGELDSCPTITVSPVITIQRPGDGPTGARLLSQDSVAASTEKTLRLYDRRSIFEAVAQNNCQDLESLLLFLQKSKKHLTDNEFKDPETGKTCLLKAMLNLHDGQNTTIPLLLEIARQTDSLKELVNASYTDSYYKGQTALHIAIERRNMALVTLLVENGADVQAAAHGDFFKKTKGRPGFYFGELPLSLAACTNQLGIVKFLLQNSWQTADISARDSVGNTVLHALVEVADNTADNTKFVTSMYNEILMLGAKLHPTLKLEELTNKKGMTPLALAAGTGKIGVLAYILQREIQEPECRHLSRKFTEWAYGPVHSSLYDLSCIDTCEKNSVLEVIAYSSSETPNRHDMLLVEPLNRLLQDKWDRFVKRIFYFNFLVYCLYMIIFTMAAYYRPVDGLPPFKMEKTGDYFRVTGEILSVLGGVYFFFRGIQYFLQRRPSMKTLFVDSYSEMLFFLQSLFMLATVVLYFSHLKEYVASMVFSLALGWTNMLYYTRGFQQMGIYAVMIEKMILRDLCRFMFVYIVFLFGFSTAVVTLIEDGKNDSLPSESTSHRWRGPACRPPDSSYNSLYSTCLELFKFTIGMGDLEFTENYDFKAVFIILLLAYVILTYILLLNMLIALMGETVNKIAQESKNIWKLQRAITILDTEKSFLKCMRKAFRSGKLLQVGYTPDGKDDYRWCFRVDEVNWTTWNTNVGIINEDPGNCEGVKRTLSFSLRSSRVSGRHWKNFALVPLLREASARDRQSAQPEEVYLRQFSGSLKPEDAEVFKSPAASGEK

Row | SMILES | IC50 [1] [nM] | Ki (CB2 receptors) [nM] | IC50 [2] [nM] | Ki (CB1 receptors; [3]) [nM] | Ki (CB1 receptors; [4]) [nM] | ED50 (mice; [5]) [mg/kg] | ED50 (mice; [6]) [mg/kg] | ED50 (mice; [7]) [mg/kg] | ED50 (mice; [8]) [mg/kg] | ED50 (mice; [9]) [mg/kg] | EC50 (human VR1 receptor; [10]) [nM] | VR1 efficacy (human VR1 receptor) [%] | other results
1 | CCCCC/C=C\C/C=C\C/C=C\C/C=C\CCCC(=O)Nc1ccc(O)cc1 [AM404, reference compound] | 8100 | – | – | – | – | – | – | – | – | – | – | – | IC50 (AMT): 8100 ± 2600 nM
2 | C[C@H](CO)NC(=O)CCC/C=C\C/C=C\C/C=C\C/C=C\C(C)(C)CCCCC#N [Compound O-1812, (R)-(20-cyano-16,16-Dimethyleicosa-cis-5,8,11,14-tetraenoyl)-1′-hydroxy-2′-propylamine] | 37000 ± 4500 | 3870 ± 235 | > 50000 | 4.6 ± 0.4 | 3.4 ± 0.5 | 0.025 | 0.017 | 0.05 | 0.017 | 0.014 | 1950 ± 184 | 50.0 | fold more potent on CB1 than on CB2 (CB1 receptors): 1000 fold; fold more potent on CB1 than on VR1 (CB1 receptors): 580 fold; EC50 (human VR1 receptor; [11]): 1900 nM; VR1 efficacy (human VR1 receptor; listed as 0-1812): 50.0 ± 1.6%
3 | C[C@H](CO)NC(=O)CCC/C=C\C/C=C\C/C=C\C/C=C\C(C)(C)CCCCBr [Compound O-1860, (R)-(20-Bromo-16,16-Dimethyleicosa-cis-5,8,11,14-tetraenoyl)-1′-hydroxy-2′-propylamine] | 40000 ± 4500 | > 10000 | > 50000 | 1 ± 0.1 | 2.2 | 0.388 | 0.43 | 0.44 | 0.39 | 0.29 | 371 ± 34 | 50.0 | EC50 (human VR1 receptor; [11]): 370 nM; VR1 efficacy (human VR1 receptor; listed as 0-1860): 62.1 ± 5.7%
4 | COc1cc(CNC(=O)CCC/C=C\C/C=C\C/C=C\C/C=C\C(C)(C)CCCCC#N)ccc1O [Compound O-1895, 20-Cyano-16,16-dimethyl-eicosa-5,8,11,14-all-cis-tetraenoic acid (4-hydroxy-3-methoxy-benzyl) amide] | 38400 ± 3100 | 5000 ± 850 | 18000 ± 2700 | 44.8 ± 8.3 | 67 ± 7.5 | 0.219 | 0.168 | 0.179 | 0.265 | 0.263 | 1 ± 0.2 | 83.1 ± 6.1 | –
5 | CCCCCCC(C)(C)/C=C\C/C=C\C/C=C\C/C=C\CCCC(=O)NCc1ccc(O)c(OC)c1 [Compound O-1839, 16,16-Dimethyl-docosa-5,8,11,14-all-cis-tetraenoic acid (4-hydroxy-3-methoxy-benzyl) amide] | 19300 ± 2300 | > 10000 | > 50000 | 201 ± 4.1 | 262 | 0.078 | – | 0.08 | 0.08 | 0.074 | 0.7 ± 0.08 | 71.9 ± 4.5 | –
6 | COc1cc(CNC(=O)CCC/C=C\C/C=C\C/C=C\C/C=C\C(C)(C)CCCCO)ccc1O [Compound O-1856, 16,16-Dimethyl-20-hydroxy-eicosa-5,8,11,14-all-cis-tetraenoic acid (4-hydroxy-3-methoxy-benzyl) amide] | 42000 | > 10000 | 14500 ± 3400 | 1070 ± 134 | 790 | 0.873 | 0.76 | 1.45 | 0.47 | 0.81 | 5 ± 0.7 | 83.9 ± 5.1 | IC50 ([1]; listed as 0-1856): 40000 ± 3800 nM
7 | C[C@H](CO)NC(=O)CCC/C=C\C/C=C\C/C=C\C/C=C\C(C)(C)CCCCO [Compound O-1811, (R)-(16,16-Dimethyl-20-hydroxyeicosa-cis-5,8,11,14-tetraenoyl)-1′-hydroxy-2′-propylamine] | 42500 ± 3300 | – | – | – | – | 0.773 | 0.663 | 0.188 | 0.996 | 1.24 | – | 62.5 ± 0.8 | Ki (CB2 receptors; rat spleen membranes, read-out: CB2 (Ki)): 800 ± 150 nM; IC50 ([2]; [14C]AEA hydrolysis, N18TG2 cell membranes, read-out: FAAH (IC50)): > 50000 nM; Ki (CB1 receptors; [3H]CP 55,940, PMSF 100 μM, read-out: CB1 (Ki, nM), determined in the presence of PMSF): 116 ± 11.1 nM; Ki (CB1 receptors; [3H]CP 55,940, without PMSF, read-out: CB1 (Ki)): 115 ± 25.2 nM; fold more potent in reducing body temperature than in increasing tail-flick latency (mice; mice, i.v.): approximately 10 fold; EC50 (human VR1 receptor; Ca2+ in HEK cells with human VR1, read-out: VR1 (EC50)): 724 ± 99 nM
